Ten molecules from patent US9527832B2, “Substituted condensed pyrimidine compounds” (GRÜNENTHAL GMBH, priority 2013, dated 2016) can be followed below.

Some results are limits rather than exact numbers.

This test concerns the target T1, human PDE4B1 (Homo sapiens, UniProt Q07343).
T1 construct: host or cells: Sf9 cells
Put plainly: cAMP HTRF assay to determine the activity of hPDE4B1. In kind it is biochemical. As to conditions: for inhibition at 1 µM: Percentage inhibition of PDE4B at 1 μM test concentration; for IC50: dose response measurements with eight concentrations, reported as ranges, read-out: IC50. Summed up: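 Sf9-expressed recombinant human PDE4B1 (4.8 U) in Tris-HCl/MgCl2/DTT/Tween 20 buffer pH 7.8, with cAMP at 40 nM final, 30 min at room temperature. Reaction stopped with IBMX 1 mM; remaining cAMP detected by HTRF (665/620 nm ratio). IC50 from eight-point dose-response, n=2.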

T1 sequence (Q07343 whole entry): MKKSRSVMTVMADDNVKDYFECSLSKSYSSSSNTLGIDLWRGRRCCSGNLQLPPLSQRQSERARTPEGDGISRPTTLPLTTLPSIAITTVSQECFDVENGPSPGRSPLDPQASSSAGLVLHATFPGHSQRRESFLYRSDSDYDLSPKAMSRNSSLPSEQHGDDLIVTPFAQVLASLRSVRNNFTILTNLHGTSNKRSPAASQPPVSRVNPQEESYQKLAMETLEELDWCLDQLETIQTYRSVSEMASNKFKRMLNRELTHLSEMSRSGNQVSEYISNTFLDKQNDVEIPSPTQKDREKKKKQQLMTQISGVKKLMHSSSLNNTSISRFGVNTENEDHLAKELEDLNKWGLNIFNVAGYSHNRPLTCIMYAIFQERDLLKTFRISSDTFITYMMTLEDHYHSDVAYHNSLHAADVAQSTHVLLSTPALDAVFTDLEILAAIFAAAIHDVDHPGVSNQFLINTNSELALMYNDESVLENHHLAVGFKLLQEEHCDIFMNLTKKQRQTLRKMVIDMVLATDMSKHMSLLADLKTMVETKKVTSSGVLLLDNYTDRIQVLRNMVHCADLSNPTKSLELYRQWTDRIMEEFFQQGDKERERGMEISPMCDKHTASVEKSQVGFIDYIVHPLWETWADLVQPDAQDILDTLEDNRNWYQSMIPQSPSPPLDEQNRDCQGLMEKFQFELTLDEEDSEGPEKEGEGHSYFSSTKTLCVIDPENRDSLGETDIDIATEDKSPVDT

As to `CN(C)C(=O)COc1ccc2c(c1)N(c1nc(-c3ccc4cc[nH]c4c3)nc3c1C[S+]([O-])C3)CC2` (stereo not drawn) [2-147, 2-[[1-[2-(1H-Indol-6-yl)-6-oxo-5,7-dihydro-thieno[3,4-d]pyrimidin-4-yl]-2,3-dihydro-1H-indol-6-yl]oxy]-N,N-dimethyl-acetamide], the inhibition at 1 µM was 86% and the IC50 was less than 100 nM.

In the case of `O=C(O)Cc1ccc2c(c1)CC(=O)N2c1nc(-c2ccc(F)s2)nc2c1CCC2` [Compound No. 1-65, 2-(1-(2-(5-Fluorothiophen-2-yl)-6,7-dihydro-5H-cyclopenta[d]-pyrimidin-4-yl)-2-oxoindolin-5-yl)acetic acid], the inhibition at 1 µM worked out at 34%.

For the molecule `CN(C)C(=O)COc1ccc2c(c1)N(c1nc(-c3ccc4cnccc4c3)nc3c1C[S+]([O-])C3)CC2` (stereo not drawn) [2-148, 2-[[1-(2-Isoquinolin-6-yl-6-oxo-5,7-dihydro-thieno[3,4-d]pyrimidin-4-yl)-2,-dihydro-1H-indol-6-yl]oxy]-N,N-dimethyl-acetamide], the inhibition at 1 µM was 100% and the IC50 is less than 100 nM.

For `Cc1cccc(-c2nc3c(c(N4CCc5ccc(OCC(=O)N(C)C)cc54)n2)C[S+]([O-])C3)c1` (stereo not drawn) [2-95, N,N-Dimethyl-2-[[1-(2-m-tolyl-6-oxo-5,7-dihydro-thieno[3,4-d]pyrimidin-4-yl)-2,3-dihydro-1H-indol-6-yl]oxy]-acetamide], the inhibition at 1 µM is 113% and the IC50 is less than 100 nM.

For the molecule `CN(C)C(=O)COc1ccc2c(c1)N(c1nc(-c3ccc4ccncc4c3)nc3c1C[S+]([O-])C3)CC2` (stereo not drawn) [2-150, 2-[[1-(2-Isoquinolin-7-yl-6-oxo-5,7-dihydro-thieno[3,4-d]pyrimidin-4-yl)-2,3-dihydro-1H-indol-6-yl]oxy]-N,N-dimethyl-acetamide], the inhibition at 1 µM worked out at 126% and the IC50 is less than 100 nM.

`CN(C)C(=O)COc1ccc2c(c1)N(c1nc(-c3cccc(Cl)c3)nc3c1C[S+]([O-])C3)CC2` (stereo not drawn) [2-89, 2-[[1-[2-(3-Chlorophenyl)-6-oxo-5,7-dihydro-thieno[3,4-d]pyrimidin-4-yl]-2,3-dihydro-1H-indol-6-yl]oxy]-N,N-dimethyl-acetamide]: the inhibition at 1 µM was 119% and the IC50 was less than 100 nM.

For `CN(C)C(=O)COc1ccc2c(c1)N(c1nc(-c3cccc(S(C)(=O)=O)c3)nc3c1C[S+]([O-])C3)CC2` (stereo not drawn) [2-107, N,N-Dimethyl-2-[[1-[2-(3-methylsulfonyl-phenyl)-6-oxo-5,7-dihydro-thieno[3,4-d]pyrimidin-4-yl]-2,3-dihydro-1H-indol-6-yl]oxy]-acetamide], the inhibition at 1 µM was found to be 113% and the IC50 is less than 100 nM.

For `O=C(COc1ccc2c(c1)N(c1nc(-c3ccc(Cl)s3)nc3c1CS(=O)(=O)C3)CC2)N1CCCC1` [Compound No. 2-126, 2-((1-(2-(5-Chlorothiophen-2-yl)-6,6-dioxido-5,7-dihydrothieno[3,4-d]pyrimidin-4-yl)indolin-6-yl)oxy)-1-(pyrrolidin-1-yl)ethanone], the inhibition at 1 µM came out at 104% and the IC50 was less than 100 nM.

In the case of `CCNC(=O)COc1ccc2c(c1)N(c1nc(-c3ccc(Cl)s3)nc3c1CS(=O)(=O)C3)CC2` [Compound No. 2-55, 2-((1-(2-(5-Chlorothiophen-2-yl)-6,6-dioxido-5,7-dihydrothieno[3,4-d]pyrimidin-4-yl)indolin-6-yl)oxy)-N-ethylacetamide], the inhibition at 1 µM came to 52%.

Consider `O=C(O)Cc1ccc2c(c1)CCN2c1nc(-c2ccc(F)s2)nc2c1CCC2` [Compound No. 1-15, 2-(1-(2-(5-Fluorothiophen-2-yl)-6,7-dihydro-5H-cyclopenta[d]pyrimidin-4-yl)indolin-5-yl)acetic acid], for which the inhibition at 1 µM is 100% and the IC50 was less than 100 nM.
